The test system of experiment [1] is S aureus ATCC 29213. The experiment is described as follows: MIC determination in BHI media, OD600. It counts as cell-based. As to conditions: BHI + 0.1% casamino acids, 18 hours at 37° C., ≧90% OD600 inhibition. In outline: (§1)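 Starting cell density was near 5×10^5 CFU/ml, taken from exponentially growing cultures. Incubation with the DMSO dilution series ran 18 hours at 37° C.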

Experiment [2] concerns E. faecium CL 4931. The experiment in a line: MIC determination in BHI media, OD600. The format is cell-based. As to conditions: BHI + 0.1% casamino acids, 18 hours at 37° C., ≧90% OD600 inhibition. In outline:
as §1

Experiment [3] concerns E. faecium ATCC 49624. The experiment in a line: MIC determination in BHI media, OD600. The format is cell-based. As to conditions: BHI + 0.1% casamino acids, 18 hours at 37° C., ≧90% OD600 inhibition. In outline:
as §1

Experiment [4] deals with S. Aureus ATCC 33591. The experiment in a line: MIC determination in BHI media, OD600. It counts as cell-based. As to conditions: BHI + 0.1% casamino acids, 18 hours at 37° C., ≧90% OD600 inhibition. A digest of the protocol:
as §1

The subject of experiment [5] is E. faceium (ATCC 49624). The experiment is described as follows: Zone of inhibition screen, 96 well agar array format. The conditions noted are these: zone of inhibition relative to 1 mg/ml stock solution of p-chlorobiphenylvancomycin. It counts as cell-based, E. faecium. As to the method:
The antibacterial activity of each of the compounds against the bacterial strains E. faceium (ATCC 49624), S. epidermidis (ATCC 12228), S. aureus (ATCC 29213), E. faecalis (CL 4877) and E. faecalis (ATCC 292121) was tested. Each of the compounds was screened in a 96 will agar array format.

Experiment [6] relates to S. epidermidis (ATCC 12228). The description is as above. The format is cell-based. Also on record: scale not given here. In outline:
(§2)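 Panel screening of every compound against several bacterial strains, among them E. faecium ATCC 49624, was done in a 96-well agar array.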

The subject of experiment [7] is E. faecalis (CL 4877). The description is as above. Further details: scale not given here. It counts as cell-based. In outline:
as §2

Experiment [8] concerns S. aureus (ATCC 29213). Described as above. The format is cell-based. Also on record: scale not given here. As to conditions: zone of inhibition relative to 1 mg/ml p-chlorobiphenylvancomycin. In outline:
as §2

The subject of experiment [9] is E. faecalis ATCC 29212. The experiment is described as follows: MIC determination in BHI media, OD600. It counts as cell-based. The conditions noted are these: BHI + 0.1% casamino acids, 18 hours at 37° C., ≧90% OD600 inhibition. In outline: as §1
The mark [10] stands for this setting: zone of inhibition relative to 1 mg/ml stock solution of p-chlorobiphenylvancomycin.
[11] abbreviates: zone of inhibition relative to 1 mg/ml p-chlorobiphenylvancomycin.

Molecules are shown by their SMILES.

The source of these data is patent publication US6518243B1, “Desleucyl glycopeptide antibiotics and methods of making same” (Trustees of Princeton University, priority 1999, dated 2003).
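Throughout, for zone score, E. faecium ATCC 49624: score 3 means fourfold and score 4 sixteenfold the reference zone size.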

On to `CC1OC(OC2C(Oc3c4cc5cc3Oc3ccc(cc3Cl)C(O)C3NC(=O)C(NC(=O)C5NC(=O)C(CC(N)=O)NC(=O)C(NC(=O)C(N)CCS(C)(=O)=O)C(O)c5ccc(c(Cl)c5)O4)c4ccc(O)c(c4)-c4c(O)cc(O)cc4C(C(=O)O)NC3=O)OC(CO)C(O)C2O)CC(C)(NCc2ccc(-c3ccc(Cl)cc3)cc2)C1O` (centres unmarked) [Compound 82], for which, in experiment [1], the MIC S. aureus ATCC 29213 stood at 0.78 µg/mL. For the same compound, the MIC E. faecium CL 4931 in [2] amounted to 25 µg/mL. The MIC E. faecium ATCC 49624 in experiment [3] was 0.39 µg/mL. In experiment [4], the MIC S. aureus ATCC 33591 stood at 0.78 µg/mL. Also, the “zone score, E. faecium ATCC 49624” value in experiment [5] is listed as 2.
Regarding `CC(O)C(N)C(=O)NC1C(=O)NC(CC(N)=O)C(=O)NC2C(=O)NC3C(=O)NC(C(=O)NC(C(=O)O)c4cc(O)cc(O)c4-c4cc3ccc4O)C(O)c3ccc(c(Cl)c3)Oc3cc2cc(c3OC2OC(CO)C(O)C(O)C2OC2CC(C)(NCc3ccc(-c4ccc(Cl)cc4)cc3)C(O)C(C)O2)Oc2ccc(cc2Cl)C1O` (centres unmarked) [Compound 89], the “zone score, S. epidermidis ATCC 12228” value in [6] (setting [10]) is listed as 2. For the same compound, the “zone score, E. faecalis CL 4877” value in [7] (setting [10]) is on record as 2. Further, the MIC E. faecium CL 4931 in [2] was more than 25 µg/mL. Also, the MIC E. faecium ATCC 49624 in experiment [3] amounted to 0.78 µg/mL. Further, the “zone score, E. faecium ATCC 49624” value in experiment [5] came out at 2.
On to `CC1OC(OC2C(Oc3c4cc5cc3Oc3ccc(cc3Cl)C(O)C3NC(=O)C(NC(=O)C5NC(=O)C(CC(N)=O)NC(=O)C(NC(=O)C(CCC(N)=O)NC(=O)OC(C)(C)C)C(O)c5ccc(c(Cl)c5)O4)c4ccc(O)c(c4)-c4c(O)cc(O)cc4C(C(=O)O)NC3=O)OC(CO)C(O)C2O)CC(C)(NCc2ccc(-c3ccc(Cl)cc3)cc2)C1O` (centres unmarked) [Compound 136], for which, in [6] (setting [10]), the “zone score, S. epidermidis ATCC 12228” value was determined as 2. In experiment [1], the MIC S. aureus ATCC 29213 is 0.78 µg/mL. In addition, in experiment [2], the MIC E. faecium CL 4931 was more than 25 µg/mL. In addition, in experiment [3], the MIC E. faecium ATCC 49624 came out at 0.78 µg/mL. Besides, the MIC S. aureus ATCC 33591 in [4] was determined as 0.78 µg/mL.
For the compound `C[C@H]1O[C@H](O[C@H]2[C@H](Oc3c4cc5cc3Oc3ccc(cc3Cl)[C@@H](O)[C@@H](NC(=O)c3cccc(N)c3)C(=O)N[C@@H](CC(N)=O)C(=O)N[C@H]5C(=O)N[C@H]3C(=O)N[C@H](C(=O)N[C@@H](C(=O)O)c5cc(O)cc(O)c5-c5cc3ccc5O)[C@H](O)c3ccc(c(Cl)c3)O4)O[C@H](CO)[C@@H](O)[C@@H]2O)C[C@@](C)(NCc2ccc(-c3ccc(Cl)cc3)cc2)[C@H]1O` [Compound 257], in experiment [6] (setting [11]), the “zone score, S. epidermidis ATCC 12228” value is on record as 2. Besides, the “zone score, E. faecalis CL 4877” value in experiment [7] (setting [11]) is reported as 2. Also, the “zone score, S. aureus ATCC 29213” value in [8] stood at 2. For the same compound, the MIC S. aureus ATCC 29213 in [1] amounted to 0.78 µg/mL. Moreover, the MIC E. faecium CL 4931 in experiment [2] worked out at 25 µg/mL. Also, in experiment [3], the MIC E. faecium ATCC 49624 turned out to be 0.39 µg/mL. The MIC S. aureus ATCC 33591 in experiment [4] was 0.78 µg/mL.
Regarding `CNC(C(=O)NC1C(=O)NC(CC(N)=O)C(=O)NC2C(=O)NC3C(=O)NC(C(=O)NC(C(=O)O)c4cc(O)cc(O)c4-c4cc3ccc4O)C(O)c3ccc(c(Cl)c3)Oc3cc2cc(c3OC2OC(CO)C(O)C(O)C2OC2CC(C)(NCc3ccc(-c4ccc(Cl)cc4)cc3)C(O)C(C)O2)Oc2ccc(cc2Cl)C1O)C(C)C` (centres unmarked) [Compound 328], the MIC S. aureus ATCC 29213 in [1] amounted to 0.25 µg/mL. The MIC E. faecium ATCC 49624 in [3] was found to be 0.12 µg/mL. Besides, the MIC E. faecalis ATCC 29212 in experiment [9] is 0.39 µg/mL. For the same compound, the MIC S. aureus ATCC 33591 in [4] worked out at 0.25 µg/mL.
As to `CNC(CC(C)C)C(=O)NC1C(=O)NC(CC(N)=O)C(=O)NC2C(=O)NC3C(=O)NC(C(=O)NC(C(=O)O)c4cc(O)cc(O)c4-c4cc3ccc4O)C(O)c3ccc(c(Cl)c3)Oc3cc2cc(c3OC2OC(CO)C(O)C(O)C2OC2CC(C)(NCc3ccc(-c4ccc(Cl)cc4)cc3)C(O)C(C)O2)Oc2ccc(cc2Cl)C1O` (centres unmarked) [Compound 329], the MIC S. aureus ATCC 29213 in experiment [1] was 0.25 µg/mL. Further, the MIC E. faecium ATCC 49624 in experiment [3] was determined as 0.031 µg/mL. Further, the MIC E. faecalis ATCC 29212 in [9] is 0.12 µg/mL. Also, the MIC S. aureus ATCC 33591 in experiment [4] is 0.12 µg/mL.
Regarding `CCC(C)C(NC)C(=O)NC1C(=O)NC(CC(N)=O)C(=O)NC2C(=O)NC3C(=O)NC(C(=O)NC(C(=O)O)c4cc(O)cc(O)c4-c4cc3ccc4O)C(O)c3ccc(c(Cl)c3)Oc3cc2cc(c3OC2OC(CO)C(O)C(O)C2OC2CC(C)(NCc3ccc(-c4ccc(Cl)cc4)cc3)C(O)C(C)O2)Oc2ccc(cc2Cl)C1O` (centres unmarked) [Compound 330], in [1], the MIC S. aureus ATCC 29213 amounted to 0.25 µg/mL. Besides, in [3], the MIC E. faecium ATCC 49624 stood at 0.12 µg/mL. Also, the MIC E. faecalis ATCC 29212 in experiment [9] is 0.78 µg/mL. The MIC S. aureus ATCC 33591 in experiment [4] was found to be 0.25 µg/mL.
Take `CC(C)CC(N)C(=O)NC1C(=O)NC(CC(N)=O)C(=O)NC2C(=O)NC3C(=O)NC(C(=O)NC(C(=O)O)c4cc(O)cc(O)c4-c4cc3ccc4O)C(O)c3ccc(c(Cl)c3)Oc3cc2cc(c3OC2OC(CO)C(O)C(O)C2OC2CC(C)(NCc3ccc(-c4ccc(Cl)cc4)cc3)C(O)C(C)O2)Oc2ccc(cc2Cl)C1O` (centres unmarked) [Compound 336]: the MIC S. aureus ATCC 29213 in experiment [1] stood at 0.25 µg/mL. In addition, in experiment [3], the MIC E. faecium ATCC 49624 is 0.12 µg/mL. Besides, in experiment [9], the MIC E. faecalis ATCC 29212 was 0.25 µg/mL. Moreover, the MIC S. aureus ATCC 33591 in experiment [4] came to 0.25 µg/mL.
